# Laboratory results reported in patent publication US20230158151A1 (NURIX THERAPEUTICS, INC., priority 2021, published 2023).
# Read-outs that look alike come from different tables or passages of the source.
# Columns and labels:
# [1] = Mouse PK Analysis (plasma LC/MS/MS, noncompartmental PK parameters); format: in vivo; design: AUC(0-t): concentration or dose not given beside the values; conditions: mice; for AUC(0-t) / Cmax / Tmax: mouse, oral administration, plasma
# Experimental: Compounds 30 and 29 were administered to mice orally. After 6 hours or 24 hours, splenocytes cells were harvested. ITK was evaluated by Western blotting. Plasma concentrations were determined by LC/MS/MS. Plasma samples were protein precipitated by addition of 100 μl of acetonitrile containing 50 ng/ml of internal standard. The resulting mixture was vortexed and centrifuged at 4000 RPM for 5 minutes. An aliquot of the resultant supernatant (75 μl) was added to 75 μl of 0.1% formic acid in water to constitute the final sample for injection. Samples were injected on a Shimadzu Exion LC Binary Gradient AD Pump HLPC system connected to a Sciex QTRAP 6500+ mass spectrometer. Five μl of sample was injected onto a Waters Acquity UPLC BEH C18 column 130A (2.1×30 mm, […]) at 40° C. utilizing a flow rate of 700 μl/minute. Mobile Phase A was 0.1% formic acid in water and mobile phase B was 0.1% formic acid in acetonitrile. A linear gradient of 15-95% B over 1.0 minute was used. The mass spectrometer was operated in positive ion electrospray mode with multiple reaction monitoring for maximum sensitivity. Sciex Analyst software (version 1.6.3) was used for LC/MS/MS instrument control and acquisition. Compound concentration was determined against a standard curve of internal standard versus compound peak area ratio. Noncompartmental PK parameters were determined using Phoenix 32 software (version 8.2.0.4383) from Certara. Plasma concentrations from the LC/MS/MS analyses, dose, route of administration, and desired units were utilized for PK parameter calculations. […] FIG. 3C provides the concentration over time of compound 30 following in vivo oral administration in the 6 hour and 24 hour assays.
# Cmax, Tmax and AUClast were all calculated using a WinNonLin Phoenix 64 v 8.2.0.4383. Using non-compartmental analysis, Tmax, Cmax and AUClast were determined as follows:
# Tmax—Time of maximum observed concentration. Cmax—Maximum observed concentration, occurring at time Tmax, as defined above. AUClast—Area under the curve from the time of dosing to the time of the last measurable (positive) concentration (Tlast).
# [2] = target: T1, ITK (Homo sapiens, UniProt Q08881); assay: ITK Degradation HiBiT Assay; format: cell-based
# T1 construct: Compounds provided herein were assayed in vitro with ITK HiBit cell lines; endogenous in cells; host or cells: Molt4 (ATCC CRL-1552 [sic]), monoclonal clone 1C10
# T1 sequence (Q08881 1-620): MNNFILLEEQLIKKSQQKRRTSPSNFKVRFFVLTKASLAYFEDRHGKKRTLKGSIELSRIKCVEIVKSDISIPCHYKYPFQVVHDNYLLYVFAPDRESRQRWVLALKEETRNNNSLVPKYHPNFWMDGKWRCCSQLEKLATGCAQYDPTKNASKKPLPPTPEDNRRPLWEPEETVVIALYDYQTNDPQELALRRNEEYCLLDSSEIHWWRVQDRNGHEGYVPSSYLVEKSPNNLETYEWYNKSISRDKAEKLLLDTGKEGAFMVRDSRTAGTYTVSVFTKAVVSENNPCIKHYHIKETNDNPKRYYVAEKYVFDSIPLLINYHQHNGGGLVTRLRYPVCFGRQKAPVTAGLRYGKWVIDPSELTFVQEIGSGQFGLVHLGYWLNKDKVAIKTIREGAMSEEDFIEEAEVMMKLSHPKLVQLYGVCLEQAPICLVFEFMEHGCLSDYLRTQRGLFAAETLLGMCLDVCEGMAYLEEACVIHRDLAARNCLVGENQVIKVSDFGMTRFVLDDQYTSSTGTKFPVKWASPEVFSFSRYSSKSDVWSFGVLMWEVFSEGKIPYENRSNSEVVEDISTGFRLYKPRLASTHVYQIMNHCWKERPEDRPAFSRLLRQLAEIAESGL
# Experimental: Compounds provided herein were assayed in vitro with ITK HiBit cell lines. Compound dilution series (11-point, 5 fold dilutions in DMSO, columns 2-12 with replicate in rows A/B, C/D, E/F, G, H at 2000× the final required concentrations were prepared in 96 well plate (Falcon, cat. no. 353077). Column 1, rows A-H were control DMSO. The 2000× solutions ranged from 2 mM to 1.024 nM (final assay concentration range 1 μM to […]). The 2000× solutions were added to cells in […], for a final DMSO concentration of 0.5% and final assay compound concentration of 1×. For the cells, C-terminal HiBiT-tagged Molt4 cells (ATCC CRL-1552, monoclonal cell line clone 1C10) were plated at 1×10^6 cells/mL, 100 μL/well ([…]) in complete RPMI (10% FBS, 1% L-glutamine). The cells were incubated with compound 32 and compound 30 for 4 hrs at 32° C./6% CO2.
# Following incubation, 100 μL of complete Nano-Glo HiBiT Lytic Detection Reagent (Nano-Glo HiBiT Lytic Buffer with 1:50 Nano-Glo HiBiT Lytic Substrate and 1:100 LgBiT Protein; Promega cat. no. N3O40) was added. Cells were further incubated for 10 min at room temperature (RT). Luminescence units (LU) were read on an EnVision plate reader (Perkin Elmer, 0.1 sec per well). Percent ITK remaining per sample was calculated as follows: […]
# Using Graphpad Prism, % ITK remaining values were plotted as a function of compound concentration. To determine DC50 and Dmax values, resulting curves were fit to the Prism curve-fitting equation “log(inhibitor) vs response−Variable slope (four parameters)” (reported best fit value IC50 used as DC50). ITK was measured with antibody-based MSD (Meso-Scale Discovery) assays shown below.
# [3] = MOLT-4, C-terminal HiBiT-tagged Molt4 cells, 4 hrs incubation, read-out: HiBiT DMax (%)
AUC(0-t) [1] [µM·h],Cmax [1] [nM],Tmax [1] [h],"Dmax ([2]; ITK degradation in HiBiT cell line, FIG. 1, read-out: Dmax values (FIG. 1)) [%]","Dmax [2, 3] [%]","DC50 ([2]; C-terminal HiBiT-tagged Molt4 cells, 4 hrs incubation) [pM]",SMILES,"detection in plasma ([1]; oral, 6 hour and 24 hour assays)"
1.25,870,2,90 to 100,85,,"C[C@@H](C(=O)N(C)c1ccc2cc(-c3n[nH]c4c3C[C@@H]3C(F)(F)[C@]3(C)C4)[nH]c2c1)N1CCN(CC2CCN(c3ccc(C4CCC(=O)NC4=O)cn3)CC2)CC1 (stereo partly drawn) [Compound 30, (2S)—N-(2-((4aS,5aR)-5,5-difluoro-5a-methyl-1,4,4a,5,5a,6-hexahydrocyclopropa[f]indazol-3-yl)-1H-indol-6-yl)-2-(4-((1-(5-(2,6-dioxopiperidin-3-yl)pyridin-2-yl)piperidin-4-yl)methyl)piperazin-1-yl)-N-methylpropanamide]",detected in plasma through 6 and 24 hours
28,5100,2,,88,3,"CC1(C)CCc2c(-c3cc4ccc(C(=O)N5CCN(CC6CCN(c7ccc(C8CCC(=O)NC8=O)nc7)CC6)CC5)cc4[nH]3)n[nH]c2C1 (centres unmarked) [Compound 42, 3-(5-(4-((4-(2-(6,6-dimethyl-4,5,6,7-tetrahydro-1H-indazol-3-yl)-1H-indole-6-carbonyl)piperazin-1-yl)methyl)piperidin-1-yl)pyridin-2-yl)piperidine-2,6-dione]",
1.69,609,1,,,,CN(C(=O)CC1CCN(c2ccc(C3CCC(=O)NC3=O)cn2)CC1)c1ccc2cc(-c3n[nH]c4c3C[C@@H]3C(F)(F)[C@]3(C)C4)[nH]c2c1 (some centres unmarked) [Compound 27],
